Measurements reported in patent US8062995B2, “Dioxazine-substituted arylamides” (Bayer CropScience AG, priority 2005, dated 2011).

Columns and labels:
[1] = test system: larvae of the mustard beetle (Phaedon cochleariae); assay: Phaedon test (sprayed Chinese cabbage discs); assay type: in vivo; conditions: for Kill rate after 7d in %: 100 g/ha
Procedure: (§1) Phaedon Test Solvents: 78 parts by weight of acetone • • 1.5 parts by weight of dimethylformamide Emulsifier: 0.5 part by weight of alkylaryl polyglycol ether To produce a suitable preparation of active compound, 1 part by weight of active compound is mixed with the stated amounts of solvents and emulsifier and the concentrate is diluted with emulsifier-containing water to the desired concentration. Discs of Chinese cabbage (Brassica pekinensis) are sprayed with an active compound preparation of the desired concentration and, after drying, populated with larvae of the mustard beetle (Phaedon cochleariae). After the desired period of time, the activity in % is determined. 100% means that all beetle larvae have been killed; 0% means that none of the beetle larvae have been killed.

[2] = test system: caterpillars of the army worm (Spodoptera frugiperda); assay: Spodoptera frugiperda test (SPODFR spray treatment); assay type: in vivo; conditions: for Kill rate after 7d in %: 100 g/ha, spray treatment
Procedure: Spodoptera frugiperda Test (SPODFR Spray Treatment) Solvents: 78 parts by weight of acetone • • 1.5 parts by weight of dimethylformamide Emulsifier: 0.5 part by weight of alkylaryl polyglycol ether To produce a suitable preparation of active compound, 1 part by weight of active compound is mixed with the stated amounts of solvents and emulsifier and the concentrate is diluted with emulsifier-containing water to the desired concentration. Discs of maize leaves (Zea mays) are sprayed with an active compound preparation of the desired concentration and after drying populated with caterpillars of the army worm (Spodoptera frugiperda). After the desired period of time, the activity in % is determined. 100% means that all of the caterpillars have been killed; 0% means that none of the caterpillars have been killed.

[3] = logP determination by HPLC (reversed-phase C18), EEC Directive 79/831 Annex V.A8; assay type: physicochemical; conditions: HPLC reversed-phase C18, 43° C., acidic range pH 2.7
Procedure: The logP values given in the tables and Preparation Examples above are determined in accordance with EEC Directive 79/831 Annex V.A8 by HPLC (High Performance Liquid Chromatography) on a reversed-phase column (C 18). Temperature: 43° C. The determination by LC-MS in the acidic range is carried out at pH 2.7 using 0.1% aqueous formic acid and acetonitrile (contains 0.1% formic acid) as mobile phases; linear gradient from 10% acetonitrile to 95% acetonitrile. Calibration is carried out using unbranched alkan-2-ones (having 3 to 16 carbon atoms) with known logP values (determination of the logP values by the retention times using linear interpolation between two successive alkanones).

[4] = test system: green peach aphid (Myzus persicae); assay: Myzus test (MYZUPE spray treatment); assay type: in vivo; conditions: for Kill rate after 5d in %: 100 g/ha, spray treatment
Procedure: as §1, with “Myzus” for “Phaedon”, “Test (MYZUPE Spray Treatment)” for “Test”, “pekinensis), which are infested by all stages of the green peach aphid (Myzus persicae)” for “pekinensis)”, “concentration.” for “concentration and, after drying, populated with larvae of the mustard beetle (Phaedon cochleariae).”, “aphids” for “beetle larvae”

[5] = test system: Spodoptera frugiperda larvae; assay: Spodoptera frugiperda test (treatment by watering); assay type: in vivo; conditions: for Kill rate after 14d in %: 20 ppm, treatment by watering
Procedure: Spodoptera frugiperda Test Solvent: 7 parts by weight of dimethylformamide Emulsifier: 2 parts by weight of alkylaryl polyglycol ether To produce a suitable preparation of active compound, 1 part by weight of active compound is mixed with the stated amounts of solvent and emulsifier and the concentrate is diluted with water to the desired concentration. Maize plants (Zea mays) are watered with an active compound preparation of the desired concentration and infected with Spodoptera frugiperda larvae. After the desired period of time, the kill in % is determined. 100% means that all larvae have been killed; 0% means that none of the larvae have been killed.

[6] = test system: Spodoptera exigua, resistant strain; assay: Spodoptera exigua test; resistant strain; assay type: in vivo; conditions: for Kill rate after 7d in %: 20 ppm, resistant strain
Procedure: Spodoptera exigua Test; Resistant Strain
Solvent: 7 parts by weight of dimethylformamide
Emulsifier: 2 parts by weight of alkylaryl polyglycol ether
To produce a suitable preparation of active compound, 1 part by weight of active compound is mixed with the stated amounts of solvent and emulsifier and the concentrate is diluted with emulsifier-containing water to the desired concentration.
Cabbage leaves (Brassica oleracea) are treated by being dipped into the active compound preparation of the desired concentration and populated with caterpillars of the army worm (Spodoptera exigua, resistant strain) while the leaves are still moist.
After the desired period of time, the kill in % is determined. 100% means that all caterpillars have been killed; 0% means that none of the caterpillars have been killed.

[7] = test system: caterpillars of the diamondback moth (Plutella xylostella); assay: Plutella test (leaf dip); assay type: in vivo
Procedure: (§2) Plutella Test Solvent: 7 parts by weight of dimethylformamide Emulsifier: 2 parts by weight of alkylaryl polyglycol ether To produce a suitable preparation of active compound, 1 part by weight of active compound is mixed with the stated amounts of solvent and emulsifier and the concentrate is diluted with emulsifier-containing water to the desired concentration. Cabbages leaves (Brassica oleracea) are treated by being dipped into the active compound preparation of the desired concentration and populated with caterpillars of the diamondback moth (Plutella xylostella) while the leaves are still moist. After the desired period of time, the kill in % is determined. 100% means that all caterpillars have been killed; 0% means that none of the caterpillars have been killed.

[8] = test system: caterpillars of the army worm (Spodoptera exigua); assay: Spodoptera exigua test (leaf dip); assay type: in vivo
Procedure: as §2, with “Spodoptera exigua” for “Plutella”, “Cabbage” for “Cabbages”, “army worm (Spodoptera exigua)” for “diamondback moth (Plutella xylostella)”

[9] = test system: caterpillars of the cotton bollworm (Heliothis armigera); assay: Heliothis armigera test (leaf dip); assay type: in vivo
Procedure: as §2, with “Heliothis armigera” for “Plutella”, “Soya bean” for “Cabbages”, “(Glycine max.)” for “(Brassica oleracea)”, “cotton bollworm (Heliothis armigera)” for “diamondback moth (Plutella xylostella)”

## O=C(Nc1c(Cl)cc(Cl)cc1C1=NOCCO1)c1cc(Cl)nn1-c1ncccc1Cl [Example I-1-2]
[1]
  activity in the Phaedon test (in words): good activity
  Kill rate after 7d in %: 100%
[2]
  activity in the Spodoptera frugiperda test, spray treatment (in words): good activity
  Kill rate after 7d in %: 100%
[3]
  logP: 3.07
[4]
  activity in the Myzus test, spray treatment (in words): good activity
  Kill rate after 5d in %: 80%

## Cc1cccc(C2=NOCCO2)c1NC(=O)c1cc(C(F)(F)F)nn1-c1ncccc1Cl [Example I-1-3]
[2]
  activity in the Spodoptera frugiperda test, spray treatment (in words): good activity
  Kill rate after 7d in %: 100%
[3]
  logP: 3.00
[5]
  activity in the Spodoptera frugiperda test, watering (in words): good activity
  Kill rate after 14d in %: 95%

## Cc1cccc(C2=NOCCO2)c1NC(=O)c1cc(Br)nn1-c1ncccc1Cl [Example I-1-4]
[2]
  activity in the Spodoptera frugiperda test, spray treatment (in words): good activity
  Kill rate after 7d in %: 100%
[3]
  logP: 2.59

## Cc1cc(Cl)cc(C2=NOCCO2)c1NC(=O)c1cc(C(F)(F)F)nn1-c1ncccc1Cl [Example I-1-6]
[6]
  activity in the Spodoptera exigua test, resistant strain (in words): good activity
  Kill rate after 7d in %: 100%
[1]
  activity in the Phaedon test (in words): good activity
  Kill rate after 7d in %: 100%
[7]
  activity in the Plutella test (in words): good activity
[7]; 20 ppm, 7 d
  Kill rate after 7d in %: 100%
[2]
  activity in the Spodoptera frugiperda test, spray treatment (in words): good activity
  Kill rate after 7d in %: 100%
[3]
  logP: 3.50
[5]
  activity in the Spodoptera frugiperda test, watering (in words): good activity
  Kill rate after 14d in %: 98%
[8]
  activity in the Spodoptera exigua test (in words): good activity
[8]; 100 ppm
  Kill rate after 7d in %: 100%

## Cc1cc(Br)cc(C2=NOCCO2)c1NC(=O)c1cc(Cl)nn1-c1ncccc1Cl [Example I-1-10]
[6]
  activity in the Spodoptera exigua test, resistant strain (in words): good activity
  Kill rate after 7d in %: 100%
[1]
  activity in the Phaedon test (in words): good activity
  Kill rate after 7d in %: 100%
[2]
  activity in the Spodoptera frugiperda test, spray treatment (in words): good activity
  Kill rate after 7d in %: 100%
[3]
  logP: 3.18
[9]
  activity in the Heliothis armigera test (in words): good activity
[9]; 20 ppm, 7 d
  Kill rate after 7d in %: 100%
[5]
  activity in the Spodoptera frugiperda test, watering (in words): good activity
  Kill rate after 14d in %: 90%
[8]
  activity in the Spodoptera exigua test (in words): good activity
[8]; 20 ppm
  Kill rate after 7d in %: 100%

## Cc1cc(Br)cc(C2=NOCCO2)c1NC(=O)c1cc(Br)nn1-c1ncccc1Cl [Example I-1-12]
[1]
  activity in the Phaedon test (in words): good activity
  Kill rate after 7d in %: 100%
[2]
  activity in the Spodoptera frugiperda test, spray treatment (in words): good activity
  Kill rate after 7d in %: 100%
[3]
  logP: 3.24

## O=C(Nc1c(Cl)cc(Cl)cc1C1=NOCCO1)c1cc(Br)nn1-c1c(Cl)cccc1Cl [Example I-1-13]
[1]
  activity in the Phaedon test (in words): good activity
  Kill rate after 7d in %: 100%
[3]
  logP: 3.98

## Cc1cc(Cl)cc(C2=NOCCO2)c1NC(=O)c1cc(C(F)(F)F)nn1-c1ncccn1 [Example I-1-14]
[3]
  logP: 2.79

## O=C(Nc1c(Cl)cc(Cl)cc1C1=NOCCO1)c1cc(C(F)(F)F)nn1-c1ncccn1 [Example I-1-15]
[3]
  logP: 2.80

## O=C(Nc1c(Cl)cc(Cl)cc1C1=NOCCO1)c1cc(Br)cn1-c1ncccc1Cl [Example I-1-21]
[1]
  activity in the Phaedon test (in words): good activity
  Kill rate after 7d in %: 100%
[2]
  activity in the Spodoptera frugiperda test, spray treatment (in words): good activity
  Kill rate after 7d in %: 100%
[3]
  logP: 3.48

## Cc1cc(Cl)cc(C2=NOCCO2)c1NC(=O)c1cc(Br)cn1-c1ncccc1Cl [Example I-1-25]
[1]
  activity in the Phaedon test (in words): good activity
  Kill rate after 7d in %: 83%
[2]
  activity in the Spodoptera frugiperda test, spray treatment (in words): good activity
  Kill rate after 7d in %: 83%
[3]
  logP: 3.50

## Cc1cc(I)cc(C2=NOCCN2)c1NC(=O)c1cc(Cl)nn1-c1ncccc1Cl [Example I-1-26]
[1]
  activity in the Phaedon test (in words): good activity
  Kill rate after 7d in %: 100%
[2]
  activity in the Spodoptera frugiperda test, spray treatment (in words): good activity
  Kill rate after 7d in %: 100%
[3]
  logP: 2.44
[4]
  activity in the Myzus test, spray treatment (in words): good activity
  Kill rate after 5d in %: 100%

## O=C(Nc1c(Cl)cccc1C1=NOCCN1)c1cc(Br)nn1-c1ncccc1Cl [Example I-1-27]
[3]
  logP: 1.89

## Cc1cccc(C2=NOCCN2)c1NC(=O)c1cc(Br)cn1-c1ncccc1Cl [Example I-1-28]
[1]
  activity in the Phaedon test (in words): good activity
  Kill rate after 7d in %: 100%
[2]
  activity in the Spodoptera frugiperda test, spray treatment (in words): good activity
  Kill rate after 7d in %: 100%
[3]
  logP: 1.83

## Cc1cc(Br)cc(C2=NOCCN2)c1NC(=O)c1cc(C(F)(F)F)nn1-c1ncccc1Cl [Example I-1-29]
[1]
  activity in the Phaedon test (in words): good activity
  Kill rate after 7d in %: 100%
[2]
  activity in the Spodoptera frugiperda test, spray treatment (in words): good activity
  Kill rate after 7d in %: 100%
[3]
  logP: 2.80
[4]
  activity in the Myzus test, spray treatment (in words): good activity
  Kill rate after 5d in %: 100%

## Cc1cc(Br)cc(C2=NOCCN2)c1NC(=O)c1cc(Cl)nn1-c1ncccc1Cl [Example I-1-30]
[1]
  activity in the Phaedon test (in words): good activity
  Kill rate after 7d in %: 100%
[2]
  activity in the Spodoptera frugiperda test, spray treatment (in words): good activity
  Kill rate after 7d in %: 100%
[3]
  logP: 2.35
[4]
  activity in the Myzus test, spray treatment (in words): good activity
  Kill rate after 5d in %: 100%
